Data taken from the supplement of paper PMC13380429.

Assays:
Conditions in all cases: 72 h
Calu-3 [1] = test: cell viability relative to DMSO; higher = less toxic
Vero E6 [2] = test: as above
Caco-2 [3] = test: as above
U2OS [4] = test: as above
HepG2 [5] = test: as above
Calu-3 [6] = test: relative viability EC50 (midpoint between 100% and the lowest measured viability); higher = less toxic
Vero E6 [7] = test: as above
Caco-2 [8] = test: as above
U2OS [9] = test: as above
HepG2 [10] = test: as above
Calu-3 [11] = test: drug sensitivity score (DSS) for viability; higher = more toxic; extreme values may be limits of the assay
Vero E6 [12] = test: as above
Caco-2 [13] = test: as above
U2OS [14] = test: as above
HepG2 [15] = test: as above

Row | Compound | cell viability (Calu-3 [1]; 1 nM) [%] | cell viability (Calu-3 [1]; 10 nM) [%] | cell viability (Calu-3 [1]; 100 nM) [%] | cell viability (Calu-3 [1]; 1000 nM) [%] | cell viability (Calu-3 [1]; 10000 nM) [%] | cell viability (Vero E6 [2]; 1 nM) [%] | cell viability (Vero E6 [2]; 10 nM) [%] | cell viability (Vero E6 [2]; 100 nM) [%] | cell viability (Vero E6 [2]; 1000 nM) [%] | cell viability (Vero E6 [2]; 10000 nM) [%] | cell viability (Caco-2 [3]; 1 nM) [%] | cell viability (Caco-2 [3]; 10 nM) [%] | cell viability (Caco-2 [3]; 100 nM) [%] | cell viability (Caco-2 [3]; 1000 nM) [%] | cell viability (Caco-2 [3]; 10000 nM) [%] | cell viability (U2OS [4]; 1 nM) [%] | cell viability (U2OS [4]; 10 nM) [%] | cell viability (U2OS [4]; 100 nM) [%] | cell viability (U2OS [4]; 1000 nM) [%] | cell viability (U2OS [4]; 10000 nM) [%] | cell viability (HepG2 [5]; 1 nM) [%] | cell viability (HepG2 [5]; 10 nM) [%] | cell viability (HepG2 [5]; 100 nM) [%] | cell viability (HepG2 [5]; 1000 nM) [%] | cell viability (HepG2 [5]; 10000 nM) [%] | relative viability EC50 (Calu-3 [6]) [µM] | relative viability EC50 (Vero E6 [7]) [µM] | relative viability EC50 (Caco-2 [8]) [µM] | relative viability EC50 (U2OS [9]) [µM] | relative viability EC50 (HepG2 [10]) [µM] | drug sensitivity score (Calu-3 [11]) | drug sensitivity score (Vero E6 [12]) | drug sensitivity score (Caco-2 [13]) | drug sensitivity score (U2OS [14]) | drug sensitivity score (HepG2 [15])
1 | O=C(NCc1ccccn1)Nc1nnc(-c2ccco2)o1 [NK-252] | 104 | 99.9 | 94.2 | 103 | 107 | 94.5 | 104 | 104 | 103 | 101 | 103 | 94.6 | 103 | 91.5 | 80.7 | 103 | 101 | 105 | 99.3 | 103 | 104 | 97.4 | 90.4 | 77.2 | 30.6 | > 10 | > 10 | > 10 | > 10 | 1.47 | 0 | 0 | 1.4 | 0 | 6.5
2 | C[C@@]1(O)[C@H](O)[C@@H](CO)O[C@H]1n1ccc(N)nc1=O [NM107] | 99.1 | 104 | 95 | 93.9 | 84.6 | 96 | 100 | 88.7 | 99.4 | 113 | 93 | 97.3 | 95.9 | 91.2 | 103 | 98.3 | 93.4 | 100 | 94.8 | 101 | 99 | 107 | 106 | 111 | 110 | > 10 | > 10 | > 10 | > 10 | > 10 | 0.3 | 0 | 0 | 0 | 0
3 | Cc1cc(OCc2nnc(SC3CCCC3)n2-c2cccnc2)ccc1-c1ccc(S(C)(=O)=O)cc1 [NMS-873] | 88.8 | 93.1 | 92.1 | 85.3 | 16.2 | 105 | 102 | 107 | 88 | 0.3 | 102 | 101 | 83.6 | 77.7 | 17.8 | 97 | 98.5 | 91.1 | 84.6 | 0.2 | 107 | 96.2 | 61.6 | 19.7 | 1.5 | 1.85 | 2.19 | 1.64 | 1.96 | 0.175 | 7.1 | 7.5 | 7.3 | 8.1 | 19.7
4 | c1ccc2c(c1)CCC[C@H]2Nc1nc2ccccc2[nH]1 [NS-8593] | 96.2 | 96.2 | 94 | 94.3 | 90.1 | 94 | 95.1 | 95.6 | 98.4 | 87.4 | 93.1 | 92.9 | 92.4 | 97.2 | 92.2 | 104 | 98.1 | 96.2 | 100 | 90.1 | 96.8 | 96.8 | 106 | 99.2 | 78.5 | > 10 | > 10 | > 10 | > 10 | > 10 | 0 | 0 | 0 | 0 | 0.8
5 | CCCCCCCCCC(=O)O[C@H]1CC[C@H]2[C@@H]3CCC4=CC(=O)CC[C@@H]4[C@H]3CC[C@]12C [Nandrolone decanoate] | 94.1 | 88.6 | 83 | 90.9 | 89 | 108 | 97.1 | 102 | 97.5 | 104 | 90.7 | 104 | 96.2 | 106 | 96.4 | 102 | 99.3 | 99.1 | 101 | 94 | 104 | 95.7 | 97.9 | 102 | 101 | > 10 | > 10 | > 10 | > 10 | > 10 | 0 | 0 | 0 | 0 | 0
6 | COC(=O)C1=C(C)NC(C)=C(C(=O)OCCSc2ccccc2)[C@@H]1C [PCA-4248] | 93.8 | 95.6 | 104 | 99 | 87.7 | 98.1 | 99.1 | 98.2 | 96.5 | 98.8 | 97.7 | 99.4 | 102 | 94.8 | 84 | 98 | 95.9 | 93.6 | 92.9 | 96.1 | 92 | 90.3 | 93.4 | 94.6 | 95.9 | > 10 | > 10 | > 10 | > 10 | > 10 | 0.1 | 0 | 0.8 | 0 | 0
7 | CN1CCN(C(=O)CN[C@@H]2C[C@H]2c2ccc(OCc3ccccc3)cc2)CC1 [RN-1] | 89.9 | 82.5 | 96.1 | 94.5 | 108 | 99.5 | 102 | 105 | 92.2 | 89.1 | 109 | 95.2 | 90.2 | 89.2 | 83.3 | 103 | 98.3 | 102 | 96.7 | 96 | 87.4 | 103 | 99.9 | 94.2 | 84.9 | > 10 | > 10 | > 10 | > 10 | > 10 | 0 | 0.1 | 1.5 | 0 | 0.7
8 | CS(=O)(=O)c1ccc([C@@H](CC2CCCC2)C(=O)Nc2nccs2)cc1 [Ro-28-1675] | 103 | 100 | 114 | 99.6 | 99.3 | 95.5 | 95.2 | 96.8 | 91.1 | 98.9 | 92 | 97.8 | 102 | 106 | 92.2 | 101 | 96.1 | 101 | 102 | 98.9 | 97.2 | 96.4 | 108 | 90.8 | 103 | > 10 | > 10 | > 10 | > 10 | > 10 | 0 | 0 | 0 | 0 | 0
9 | C[C@H](N)Cn1ccc2cc(F)c(Cl)cc21 [Ro-60-0175] | 93.7 | 92.3 | 87.4 | 95.6 | 87.2 | 104 | 98.4 | 100 | 95.3 | 96 | 94.9 | 90.9 | 101 | 95.8 | 85.2 | 96.5 | 106 | 96.9 | 104 | 93.3 | 99.5 | 101 | 106 | 99.8 | 103 | > 10 | > 10 | > 10 | > 10 | > 10 | 0 | 0 | 0.6 | 0 | 0
10 | O=C(N/N=C/c1ccccc1O)c1ccccc1O [SCS] | 108 | 94.9 | 98.2 | 99.3 | 11.9 | 97.6 | 100 | 101 | 102 | 45.4 | 97 | 97.6 | 88.6 | 76.5 | 3.6 | 98.7 | 104 | 95.6 | 91.1 | 46.3 | 102 | 94.6 | 94.1 | 86.6 | 5.5 | 3.11 | 3.35 | 1.6 | 1.89 | 2.04 | 5 | 2.8 | 8.8 | 4.4 | 7.5
11 | Fc1ccc(-c2nc(-c3c(F)cccc3F)[nH]c2-c2ccncc2)cc1 [TA-01] | 104 | 107 | 97.2 | 85.2 | 94.6 | 112 | 106 | 95 | 94.7 | 93.7 | 105 | 109 | 99.9 | 84.7 | 96.1 | 108 | 112 | 101 | 98.6 | 95.9 | 108 | 97.3 | 94.3 | 99.4 | 98.4 | > 10 | > 10 | > 10 | > 10 | > 10 | 1.6 | 0 | 1.5 | 0 | 0
12 | O=[N+]([O-])c1c(Nc2cc(F)cc(Cl)c2)ccc2nonc12 [TC-S-7009] | 102 | 98.1 | 104 | 106 | 104 | 102 | 102 | 96.4 | 99.5 | 95.8 | 99.2 | 96.3 | 97.2 | 95.9 | 92.9 | 100 | 106 | 97.9 | 105 | 95.9 | 93.1 | 103 | 95.3 | 85.7 | 94.5 | > 10 | > 10 | > 10 | > 10 | > 10 | 0 | 0 | 0 | 0 | 0
13 | CCOC(=O)c1ccccc1OC(=O)CCCCCCCC(=O)Oc1ccccc1C(=O)OCC [TU-2100] | 94.1 | 104 | 92.3 | 95.7 | 108 | 95.5 | 101 | 102 | 101 | 99.9 | 97.9 | 101 | 92.1 | 95.6 | 100 | 102 | 100 | 97.3 | 99.6 | 99.3 | 97.9 | 104 | 106 | 96.7 | 98.9 | > 10 | > 10 | > 10 | > 10 | > 10 | 0 | 0 | 0 | 0 | 0
14 | NC(=O)c1cccc(-c2cccc(OC(=O)NC3CCCCC3)c2)c1 [URB597] | 86.4 | 94.6 | 92.7 | 88.4 | 99.1 | 107 | 98.5 | 104 | 96.7 | 103 | 93.9 | 98.7 | 93.9 | 103 | 89.1 | 94 | 102 | 98.5 | 105 | 98.8 | 104 | 105 | 104 | 96.9 | 92.3 | > 10 | > 10 | > 10 | > 10 | > 10 | 0 | 0 | 0 | 0 | 0
15 | CCC[C@H](NC(=O)/C(C#N)=C/c1cccc(Br)n1)c1ccccc1 [WP1130] | 100 | 97.1 | 90.7 | 118 | 10.8 | 101 | 100 | 100 | 97.6 | 3.5 | 106 | 103 | 93.2 | 93 | 21.3 | 95.7 | 108 | 97.5 | 94.6 | 0.9 | 99.8 | 105 | 101 | 100 | 0.8 | 3.94 | 2.98 | 2.43 | 2.74 | 3.18 | 4 | 5.7 | 5.5 | 6.3 | 5.5
